Measured values taken from ChEMBL document CHEMBL1133864, “Identification of a novel family of nucleosides that specifically inhibit HIV-1 reverse transcriptase” (Bioorg Med Chem Lett, 2001).

The compounds below were run on CCRF-CEM (assay: Concentration required to reduce the viability of mock-infected CEM cells by 50%). Conditions: Homo sapiens.
Assay type: functional

Row | Compound | CC50
1 | Cc1cn(C2OC(CO[Si](C)(C)C(C)(C)C)CC2O[Si](C)(C)C(C)(C)C)c(=O)n(CC(=O)OCc2ccccc2)c1=O (stereo not drawn) | 21.6 µM
2 | Cc1cn(C2OC(CO[Si](C)(C)C(C)(C)C)CC2O[Si](C)(C)C(C)(C)C)c(=O)n(CC(=O)O)c1=O (stereo not drawn) | 20.7 µM
3 | Cc1cn([C@@H]2O[C@H](CO[Si](C)(C)C(C)(C)C)C3(OS(=O)(=O)C=C3N)[C@H]2O[Si](C)(C)C(C)(C)C)c(=O)[nH]c1=O (stereo partly drawn) | 14 µM
4 | Cc1cn([C@H]2C[C@H](O[Si](C)(C)C(C)(C)C)[C@@H](CO[Si](C)(C)C(C)(C)C)O2)c(=O)n(CC(=O)OCc2ccccc2)c1=O | 56.4 µM
5 | Cc1cn([C@@H]2O[C@H](CO)[C@@H](O)[C@H]2O[Si](C)(C)C(C)(C)C)c(=O)n(CC(=O)O)c1=O | > 250 µM
6 | Cc1cn([C@@H]2O[C@H](CO[Si](C)(C)C(C)(C)C)[C@@H](O)[C@H]2O[Si](C)(C)C(C)(C)C)c(=O)n(CC(=O)O)c1=O | 23 µM
7 | Cc1cn([C@@H]2O[C@H](CO[Si](C)(C)C(C)(C)C)[C@@H](O[Si](C)(C)C(C)(C)C)[C@H]2O[Si](C)(C)C(C)(C)C)c(=O)n(CC(=O)OCc2ccccc2)c1=O | 102 µM
8 | Cc1cn([C@@H]2O[C@H](CO[Si](C)(C)C(C)(C)C)[C@@H](O[Si](C)(C)C(C)(C)C)[C@H]2O[Si](C)(C)C(C)(C)C)c(=O)n(CC(=O)O)c1=O | > 125 µM
9 | Cc1cn([C@@H]2O[C@H](CO[Si](C)(C)C(C)(C)C)[C@@H](O[Si](C)(C)C(C)(C)C)[C@H]2O)c(=O)n(CC(=O)OCc2ccccc2)c1=O | 57.1 µM
10 | Cc1cn([C@@H]2O[C@H](CO[Si](C)(C)C(C)(C)C)[C@@H](O[Si](C)(C)C(C)(C)C)[C@H]2O)c(=O)n(CC(=O)O)c1=O | 29.3 µM
11 | Cc1cn([C@@H]2O[C@H](CO)[C@@H](O)[C@H]2O[Si](C)(C)C(C)(C)C)c(=O)n(CC(=O)OCc2ccccc2)c1=O | 26 µM
12 | Cc1cn([C@H]2C[C@H](O[Si](C)(C)C(C)(C)C)[C@@H](CO[Si](C)(C)C(C)(C)C)O2)c(=O)n(CC(=O)O)c1=O | 20.3 µM
13 | Cc1cn([C@@H]2O[C@H](CO[Si](C)(C)C(C)(C)C)[C@@H](O)[C@H]2O[Si](C)(C)C(C)(C)C)c(=O)n(CC(=O)OCc2ccccc2)c1=O | 25.7 µM
14 | Cc1cn(C2CCC(CO[Si](C)(C)C(C)(C)C)O2)c(=O)n(CC(=O)OCc2ccccc2)c1=O (stereo not drawn) | > 250 µM
15 | Cc1cn(C2CCC(CO[Si](C)(C)C(C)(C)C)O2)c(=O)n(CC(=O)O)c1=O (stereo not drawn) | > 250 µM
16 | Cc1cn(C2O[C@H](CO[Si](C)(C)C(C)(C)C)[C@@H](O)[C@H]2O)c(=O)n(CC(=O)O)c1=O (stereo partly drawn) | > 250 µM
17 | Cc1cn(C2O[C@H](CO[Si](C)(C)C(C)(C)C)[C@@H](O)[C@H]2O)c(=O)n(CC(=O)OCc2ccccc2)c1=O (stereo partly drawn) | 30 µM
18 | Cc1cn(C2O[C@H](CO)[C@@H](O)[C@H]2O)c(=O)n(CC(=O)O)c1=O (stereo partly drawn) | > 250 µM
19 | Cc1cn(C2O[C@H](CO)[C@@H](O)[C@H]2O)c(=O)n(CC(=O)OCc2ccccc2)c1=O (stereo partly drawn) | > 250 µM
20 | Cc1cn([C@H]2C[C@H](N=[N+]=[N-])[C@@H](CO)O2)c(=O)[nH]c1=O [ZIDOVUDINE] | 6 µM

The compounds below were run on Human immunodeficiency virus 2 (assay: Effective concentration required to inhibit HIV-2 induced cytopathicity by 50% in CEM cells). Conditions: Human immunodeficiency virus 2, CCRF-CEM.
Assay type: functional, organism-based

Row | Compound | EC50
21 | Cc1cn(C2OC(CO[Si](C)(C)C(C)(C)C)CC2O[Si](C)(C)C(C)(C)C)c(=O)n(CC(=O)OCc2ccccc2)c1=O (stereo not drawn) | > 2 µM
22 | Cc1cn(C2OC(CO[Si](C)(C)C(C)(C)C)CC2O[Si](C)(C)C(C)(C)C)c(=O)n(CC(=O)O)c1=O (stereo not drawn) | > 10 µM
23 | Cc1cn([C@@H]2O[C@H](CO[Si](C)(C)C(C)(C)C)C3(OS(=O)(=O)C=C3N)[C@H]2O[Si](C)(C)C(C)(C)C)c(=O)[nH]c1=O (stereo partly drawn) | > 20 µM
24 | Cc1cn([C@H]2C[C@H](O[Si](C)(C)C(C)(C)C)[C@@H](CO[Si](C)(C)C(C)(C)C)O2)c(=O)n(CC(=O)OCc2ccccc2)c1=O | > 10 µM
25 | Cc1cn([C@@H]2O[C@H](CO)[C@@H](O)[C@H]2O[Si](C)(C)C(C)(C)C)c(=O)n(CC(=O)O)c1=O | > 250 µM
26 | Cc1cn([C@@H]2O[C@H](CO[Si](C)(C)C(C)(C)C)[C@@H](O)[C@H]2O[Si](C)(C)C(C)(C)C)c(=O)n(CC(=O)O)c1=O | > 10 µM
27 | Cc1cn([C@@H]2O[C@H](CO[Si](C)(C)C(C)(C)C)[C@@H](O[Si](C)(C)C(C)(C)C)[C@H]2O[Si](C)(C)C(C)(C)C)c(=O)n(CC(=O)OCc2ccccc2)c1=O | > 50 µM
28 | Cc1cn([C@@H]2O[C@H](CO[Si](C)(C)C(C)(C)C)[C@@H](O[Si](C)(C)C(C)(C)C)[C@H]2O[Si](C)(C)C(C)(C)C)c(=O)n(CC(=O)O)c1=O | > 125 µM
29 | Cc1cn([C@@H]2O[C@H](CO[Si](C)(C)C(C)(C)C)[C@@H](O[Si](C)(C)C(C)(C)C)[C@H]2O)c(=O)n(CC(=O)OCc2ccccc2)c1=O | > 10 µM
30 | Cc1cn([C@@H]2O[C@H](CO[Si](C)(C)C(C)(C)C)[C@@H](O[Si](C)(C)C(C)(C)C)[C@H]2O)c(=O)n(CC(=O)O)c1=O | > 10 µM
31 | Cc1cn([C@@H]2O[C@H](CO)[C@@H](O)[C@H]2O[Si](C)(C)C(C)(C)C)c(=O)n(CC(=O)OCc2ccccc2)c1=O | > 10 µM
32 | Cc1cn([C@H]2C[C@H](O[Si](C)(C)C(C)(C)C)[C@@H](CO[Si](C)(C)C(C)(C)C)O2)c(=O)n(CC(=O)O)c1=O | > 10 µM
33 | Cc1cn([C@@H]2O[C@H](CO[Si](C)(C)C(C)(C)C)[C@@H](O)[C@H]2O[Si](C)(C)C(C)(C)C)c(=O)n(CC(=O)OCc2ccccc2)c1=O | > 10 µM
34 | Cc1cn(C2CCC(CO[Si](C)(C)C(C)(C)C)O2)c(=O)n(CC(=O)OCc2ccccc2)c1=O (stereo not drawn) | > 50 µM
35 | Cc1cn(C2CCC(CO[Si](C)(C)C(C)(C)C)O2)c(=O)n(CC(=O)O)c1=O (stereo not drawn) | > 250 µM
36 | Cc1cn(C2O[C@H](CO[Si](C)(C)C(C)(C)C)[C@@H](O)[C@H]2O)c(=O)n(CC(=O)O)c1=O (stereo partly drawn) | > 250 µM
37 | Cc1cn(C2O[C@H](CO[Si](C)(C)C(C)(C)C)[C@@H](O)[C@H]2O)c(=O)n(CC(=O)OCc2ccccc2)c1=O (stereo partly drawn) | > 10 µM
38 | Cc1cn(C2O[C@H](CO)[C@@H](O)[C@H]2O)c(=O)n(CC(=O)O)c1=O (stereo partly drawn) | > 250 µM
39 | Cc1cn(C2O[C@H](CO)[C@@H](O)[C@H]2O)c(=O)n(CC(=O)OCc2ccccc2)c1=O (stereo partly drawn) | > 250 µM
40 | Cc1cn([C@H]2C[C@H](N=[N+]=[N-])[C@@H](CO)O2)c(=O)[nH]c1=O [ZIDOVUDINE] | 0.004 µM

What follows are compounds tested against T1, Human immunodeficiency virus type 1 reverse transcriptase (Human immunodeficiency virus 1, UniProt Q72547) (assay: The compound was evaluated for inhibition of HIV-1 wild types […]-Lys recombinant reverse transcriptase). Conditions: not given.

Row | Compound | IC50
41 | Cc1cn(C2OC(CO[Si](C)(C)C(C)(C)C)CC2O[Si](C)(C)C(C)(C)C)c(=O)n(CC(=O)O)c1=O (stereo not drawn) | 33.8 µM
42 | Cc1cn([C@@H]2O[C@H](CO[Si](C)(C)C(C)(C)C)C3(OS(=O)(=O)C=C3N)[C@H]2O[Si](C)(C)C(C)(C)C)c(=O)[nH]c1=O (stereo partly drawn) | 3.6 µM
43 | Cc1cn([C@@H]2O[C@H](CO[Si](C)(C)C(C)(C)C)[C@@H](O)[C@H]2O[Si](C)(C)C(C)(C)C)c(=O)n(CC(=O)O)c1=O | 138 µM
44 | Cc1cn([C@@H]2O[C@H](CO[Si](C)(C)C(C)(C)C)[C@@H](O[Si](C)(C)C(C)(C)C)[C@H]2O)c(=O)n(CC(=O)O)c1=O | 207 µM

The compounds below were run against T1, Human immunodeficiency virus type 1 reverse transcriptase (assay: The compound was evaluated for inhibition of HIV-1 mutant […]-Lys recombinant reverse transcriptase). Conditions: not given.

Row | Compound | IC50
45 | Cc1cn(C2OC(CO[Si](C)(C)C(C)(C)C)CC2O[Si](C)(C)C(C)(C)C)c(=O)n(CC(=O)O)c1=O (stereo not drawn) | 47.4 µM
46 | Cc1cn([C@@H]2O[C@H](CO[Si](C)(C)C(C)(C)C)C3(OS(=O)(=O)C=C3N)[C@H]2O[Si](C)(C)C(C)(C)C)c(=O)[nH]c1=O (stereo partly drawn) | > 500 µM
47 | Cc1cn([C@@H]2O[C@H](CO[Si](C)(C)C(C)(C)C)[C@@H](O)[C@H]2O[Si](C)(C)C(C)(C)C)c(=O)n(CC(=O)O)c1=O | 158 µM
48 | Cc1cn([C@@H]2O[C@H](CO[Si](C)(C)C(C)(C)C)[C@@H](O[Si](C)(C)C(C)(C)C)[C@H]2O)c(=O)n(CC(=O)O)c1=O | 335 µM
